Data taken from patent US20060111305A1, “Metabolites of certain [1,4]diazepino[6,7,1-ij]quinoline derivatives and methods of preparation and use thereof” (Wyeth, priority 2004, published 2006).
Where “and” joins values, the source holds several entries; their conditions need not be identical. Equal values may be shown once. Read-outs that look alike come from different tables or passages of the source.

How the values were obtained:
[1] = M6 to DCDQ ratios in human urine, LC/MS (Table 35); format: in vivo, healthy human subjects
Description: (§1) Drug administration and specimen collection were performed in a randomized, double-blinded, placebo-controlled, ascending single dose study of the safety, tolerability, pharmacokinetics, and pharmacodynamics of DCDQ administered orally to healthy subjects and subjects with schizophrenia and schizoaffective disorder. The specimens were stored at approximately −70° C. until analysis for metabolite profiles and for ratios of carbamoyl glucuronide (M6) to DCDQ.
The 0-4, 4-12 and 12-24 hr urine samples from the same subjects in the single dose groups were analyzed for ratios of M6 to DCDQ. The internal standard was not used in the analysis of urine samples. The samples were diluted for 20-fold with a control urine sample and directly analyzed by LC/MS. To estimate M6-to-DCDQ ratios in human urine, control urine samples were spiked with 200 ng/mL of DCDQ and 1000, 5000, or 10000 ng/mL of DCDQ carbamoyl glucuronide, and were analyzed by LC/MS.
(§2) LC/MS System 3 was used for semi-quantitative analysis of metabolite M6 (DCDQ carbamoyl glucuronide) in plasma and urine samples. The HPLC equipment for this LC/MS System consisted of a Thermo Surveyor HPLC (Thermo Electron Corp., San Jose, Calif.), including a Surveyor MS pump and autosampler. Separations were accomplished on a 5 micron Phenomenex Luna C18(2) column, 150×2 mm (Phenomenex, Torrance, Calif.). The autosampler and column temperatures were set at 5° C. and 40° C., respectively. The HPLC mobile phase consisted of 10 mM ammonium acetate (A) and methanol (B), and was delivered at 0.2 mL/min. The linear mobile phase gradient (HPLC Gradient 2) is shown below. During LC/MS sample analysis, up to 3 min of the initial flow was diverted away from the mass spectrometer prior to evaluation of metabolites.
(§3) The mass spectrometer used for semi-quantitative anslysis with LC/MS System 3 was a Finnigan TSQ Quantum triple quadrupole mass spectrometer (Thermo Electron Corp.). The mass spectrometer was equipped with an electrospray interface and operated in the positive ionization mode. Settings for this mass spectrometer are listed below.
(§4) LC/MS/MS analysis in the selected reaction monitoring (SRM) mode (LC/SRM) was conducted for DCDQ and M6 using the following settings.

[2] = Concentrations of DCDQ and DCDQ carbamoyl glucuronide (M6) in human plasma, LC/SRM (Table 34); format: in vivo, healthy human subjects; details: plasma, plasma; for concentration at 6 h / concentration at 12 h / concentration at 24 h: human, oral, read-out: DCDQ concentration in plasma
Description: as §1
Plasma samples from fasted subjects 25, 28 and 30 in the 50 mg single dose group, fasted subjects 50, 51, 54 in the 200 mg single dose group, fasted subjects 74, 76, 79 in the 300 mg single dose group, fed subjects 83, 84, 86 in the 300 mg single dose group and fasted subjects 92, 94, 96 in the 500 mg single dose group were analyzed for DCDQ carbamoyl glucuronide (M6) concentrations. The internal standard d8-DCDQ (25 μL of 200 ng/mL methanol solution) was added to 100 μL of the plasma samples, followed by the addition of 300 μL of acetonitrile. The samples were mixed and centrifuged at 14000 rpm in an Eppendorf 5415C centrifuge (Brinkman Instruments Inc., Westbury, N.Y.) for 10 minutes. The supernatant of each sample was transferred to a clean tube and evaporated to dryness under a stream of nitrogen in a TurboVap LV evaporator (Caliper Life Sciences, Hopkinton, Mass.). The residue was reconstituted with 50 μL of methanol followed by the addition of 150 μL of water. The sample was mixed and centrifuged as described above. The supernatant was analyzed by LC/MS/MS analysis. Samples for standard curves were prepared with control plasma spiked with synthetic M6. The concentrations of M6 used for the standard curve ranged from 0 to 2500 ng/mL plasma.
as §2, §3, §4
The computer program Microsoft Excel® 97 was used to calculate means and standard deviations and to perform the student t-test. Xcalibur (version 1.3) and MassLynx software (version 4.0) were used for collection and analysis of LC/MS data. Peak area ratios of M6 to the internal standard were used for quantitation of M6 in plasma samples.

For `c1cc2c3c(c1)[C@H]1CCC[C@H]1CN3CCNC2` [DCDQ, (9aR,12aS)-4,5,6,7,9,9a,10,11,12,12a-decahydro-cyclopenta[c][1,4]diazepine[6,7,1-ij]quinoline, reference compound], the “DCDQ concentration in urine” value ([1]; 50 mg (fasted), 0-4 hr, Mean ± S.D.) was 47.5 ± 58.5 ng/mL, the “DCDQ concentration in urine” value ([1]; 50 mg (fasted), 0-4 hr, individual subjects) was 115 ng/mL and 13.7 ng/mL (2×) and the “DCDQ concentration in urine” value ([1]; 50 mg (fasted), 4-12 hr, Mean ± S.D.) was 58.4 ± 58.9 ng/mL. The “DCDQ concentration in urine” value ([1]; 50 mg (fasted), 4-12 hr, individual subjects) was 31 ng/mL and 18.2 ng/mL and 126 ng/mL, the “DCDQ concentration in urine” value ([1]; 50 mg (fasted), 12-24 hr, Mean) was 32.7 ± 37.4 ng/mL and the “DCDQ concentration in urine” value ([1]; 50 mg (fasted), 12-24 hr, individual subjects) was 17.7 ng/mL and 5.21 ng/mL and 75.3 ng/mL. The “DCDQ concentration in urine” value ([1]; 200 mg (fasted), 0-4 hr, Mean ± S.D.) was 199 ± 124 ng/mL, the “DCDQ concentration in urine” value ([1]; 200 mg (fasted), 0-4 hr, individual subjects) was 251 ng/mL and 288 ng/mL and 57 ng/mL and the “DCDQ concentration in urine” value ([1]; 200 mg (fasted), 4-12 hr, Mean ± S.D.) was 118 ± 51.9 ng/mL. The “DCDQ concentration in urine” value ([1]; 200 mg (fasted), 4-12 hr, individual subjects) was 79.5 ng/mL and 177 ng/mL and 97.3 ng/mL, the “DCDQ concentration in urine” value ([1]; 200 mg (fasted), 12-24 hr, Mean ± S.D.) was 114 ± 81.5 ng/mL and the “DCDQ concentration in urine” value ([1]; 200 mg (fasted), 12-24 hr, individual subjects) was 23.1 ng/mL and 181 ng/mL and 137 ng/mL. The “DCDQ concentration in urine” value ([1]; 300 mg (fasted), 0-4 hr, Mean ± S.D.) was 81.4 ± 82.9 ng/mL, the “DCDQ concentration in urine” value ([1]; 300 mg (fasted), 0-4 hr, individual subjects) was 9.43 ng/mL and 62.8 ng/mL and 172 ng/mL and the “DCDQ concentration in urine” value ([1]; 300 mg (fasted), 4-12 hr, Mean ± S.D.) was 62.5 ± 36.8 ng/mL. For the same compound, the “DCDQ concentration in urine” value ([1]; 300 mg (fasted), 4-12 hr, individual subjects) was 21.7 ng/mL and 93.4 ng/mL and 72.3 ng/mL, the “DCDQ concentration in urine” value ([1]; 300 mg (fasted), 12-24 hr, Mean ± S.D.) was 128 ± 148 ng/mL and the “DCDQ concentration in urine” value ([1]; 300 mg (fasted), 12-24 hr, individual subjects) was 22.9 ng/mL and 298 ng/mL and 64.1 ng/mL. For the same compound, the “DCDQ concentration in urine” value ([1]; 300 mg (fed), 0-4 hr, Mean ± S.D.) was 19.8 ± 31.3 ng/mL, the “DCDQ concentration in urine” value ([1]; 300 mg (fed), 0-4 hr, individual subjects) was 55.9 ng/mL and 1.56 ng/mL and 1.82 ng/mL and the “DCDQ concentration in urine” value ([1]; 300 mg (fed), 4-12 hr, Mean ± S.D.) was 155 ± 115 ng/mL. For the same compound, the “DCDQ concentration in urine” value ([1]; 300 mg (fed), 4-12 hr, individual subjects) was 259 ng/mL and 174 ng/mL and 30.6 ng/mL, the “DCDQ concentration in urine” value ([1]; 300 mg (fed), 12-24 hr, Mean ± S.D.) was 258 ± 125 ng/mL and the “DCDQ concentration in urine” value ([1]; 300 mg (fed), 12-24 hr, individual subjects) was 351 ng/mL and 116 ng/mL and 308 ng/mL. For the same compound, the “DCDQ concentration in urine” value ([1]; 500 mg (fasted), 0-4 hr, Mean ± S.D.) was 914 ± 619 ng/mL, the “DCDQ concentration in urine” value ([1]; 500 mg (fasted), 0-4 hr, individual subjects) was 1569 ng/mL and 835 ng/mL and 339 ng/mL and the “DCDQ concentration in urine” value ([1]; 500 mg (fasted), 4-12 hr, Mean ± S.D.) was 1369 ± 658 ng/mL. For the same compound, the “DCDQ concentration in urine” value ([1]; 500 mg (fasted), 4-12 hr, individual subjects) was 1683 ng/mL and 612 ng/mL and 1811 ng/mL, the “DCDQ concentration in urine” value ([1]; 500 mg (fasted), 12-24 hr, Mean ± S.D.) was 279 ± 123 ng/mL and the “DCDQ concentration in urine” value ([1]; 500 mg (fasted), 12-24 hr, individual subjects) was 160 ng/mL and 405 ng/mL and 273 ng/mL. The concentration at 6 h ([2]; 50 mg, 50 mg (fasted), 6 hr, Mean ± S.D.) was 2.47 ± 2.21 ng/mL, the concentration at 12 h ([2]; 50 mg, 50 mg (fasted), 12 hr, Mean ± S.D.) was 1.2 ± 1.14 ng/mL and the concentration at 24 h ([2]; 50 mg, 50 mg (fasted), 24 hr, Mean (standard deviation not calculated)) was 0.4 ng/mL. For the same compound, the concentration at 6 h ([2]; 200 mg, 200 mg (fasted), 6 hr, Mean ± S.D.) was 10.9 ± 7.71 ng/mL, the concentration at 12 h ([2]; 200 mg, 200 mg (fasted), 12 hr, Mean ± S.D.) was 5.6 ± 4.06 ng/mL and the concentration at 24 h ([2]; 200 mg, 200 mg (fasted), 24 hr, Mean ± S.D.) was 1.5 ± 1.15 ng/mL. For the same compound, the concentration at 6 h ([2]; 300 mg, 300 mg (fasted), 6 hr, Mean ± S.D.) was 7.45 ± 7.48 ng/mL, the concentration at 12 h ([2]; 300 mg, 300 mg (fasted), 12 hr, Mean ± S.D.) was 4.23 ± 3.26 ng/mL and the concentration at 24 h ([2]; 300 mg, 300 mg (fasted), 24 hr, Mean ± S.D.) was 1.46 ± 0.43 ng/mL. It also gave a concentration at 24 h ([2]; 300 mg, 300 mg (fasted), 24 hr, individual subjects) of 0.972 ng/mL, a concentration at 6 h ([2]; 300 mg, 300 mg (fed), 6 hr, Mean ± S.D.) of 12 ± 9.39 ng/mL and a concentration at 12 h ([2]; 300 mg, 300 mg (fed), 12 hr, Mean ± S.D.) of 8.31 ± 2.47 ng/mL. The concentration at 12 h ([2]; 300 mg, 300 mg (fed), 12 hr, individual subjects) was 10.9 ng/mL, the concentration at 24 h ([2]; 300 mg, 300 mg (fed), 24 hr, Mean ± S.D.) was 2.15 ± 0.86 ng/mL and the concentration at 6 h ([2]; 500 mg, 500 mg (fasted), 6 hr, Mean ± S.D.) was 32.1 ± 12.2 ng/mL. The concentration at 12 h ([2]; 500 mg, 500 mg (fasted), 12 hr, Mean ± S.D.) was 19.4 ± 6.56 ng/mL, the concentration at 24 h ([2]; 500 mg, 500 mg (fasted), 24 hr, Mean ± S.D.) was 5.45 ± 1.47 ng/mL and the concentration at 24 h ([2]; 500 mg, 500 mg (fasted), 24 hr, individual subjects) was 5.53 ng/mL. For the same compound, the “DCDQ concentration in plasma” value ([2]; 50 mg (fasted), 6 hr, individual subjects) was 0.9 ng/mL and 5.0 ng/mL, the “DCDQ concentration in plasma” value ([2]; 50 mg (fasted), 12 hr, individual subjects) was 0.7 ng/mL and 0.4 ng/mL and 2.5 ng/mL and the “DCDQ concentration in plasma” value ([2]; 50 mg (fasted), 24 hr, individual subjects) was 0.2 ng/mL and 0.6 ng/mL. The “DCDQ concentration in plasma” value ([2]; 200 mg (fasted), 6 hr, individual subjects) was 2.7 ng/mL and 18.0 ng/mL and 12.0 ng/mL, the “DCDQ concentration in plasma” value ([2]; 200 mg (fasted), 12 hr, individual subjects) was 1.2 ng/mL and 9.2 ng/mL and 6.4 ng/mL and the “DCDQ concentration in plasma” value ([2]; 200 mg (fasted), 24 hr, individual subjects) was 0.3 ng/mL and 2.6 ng/mL and 1.6 ng/mL. The “DCDQ concentration in plasma” value ([2]; 300 mg (fasted), 6 hr, individual subjects) was 2.09 ng/mL and 4.27 ng/mL and 16.0 ng/mL, the “DCDQ concentration in plasma” value ([2]; 300 mg (fasted), 12 hr, individual subjects) was 1.50 ng/mL and 3.34 ng/mL and 7.84 ng/mL and the “DCDQ concentration in plasma” value ([2]; 300 mg (fasted), 24 hr, individual subjects) was 1.72 ng/mL and 1.70 ng/mL. For the same compound, the “DCDQ concentration in plasma” value ([2]; 300 mg (fed), 6 hr, individual subjects) was 19.0 ng/mL and 15.6 ng/mL and 1.30 ng/mL, the “DCDQ concentration in plasma” value ([2]; 300 mg (fed), 12 hr, individual subjects) was 8.06 ng/mL and 5.97 ng/mL and the “DCDQ concentration in plasma” value ([2]; 300 mg (fed), 24 hr, individual subjects) was 2.60 ng/mL and 1.15 ng/mL and 2.69 ng/mL. The “DCDQ concentration in plasma” value ([2]; 500 mg (fasted), 6 hr, individual subjects) was 44.5 ng/mL and 31.7 ng/mL and 20.2 ng/mL, the “DCDQ concentration in plasma” value ([2]; 500 mg (fasted), 12 hr, individual subjects) was 24.5 ng/mL and 21.7 ng/mL and 12.0 ng/mL and the “DCDQ concentration in plasma” value ([2]; 500 mg (fasted), 24 hr, individual subjects) was 6.88 ng/mL and 3.95 ng/mL.
